What was measured:
[1] = molecular target: T1, MTHFD1 recombinant human enzyme (Homo sapiens, UniProt P11586); test: MTHFD1 inhibition assay (NAD(P)H-Glo luminescence); conditions: MTHFD1 IC50, recombinant human enzyme 200 nM, NADP, band
T1 sequence (P11586 2-291 limits assumed): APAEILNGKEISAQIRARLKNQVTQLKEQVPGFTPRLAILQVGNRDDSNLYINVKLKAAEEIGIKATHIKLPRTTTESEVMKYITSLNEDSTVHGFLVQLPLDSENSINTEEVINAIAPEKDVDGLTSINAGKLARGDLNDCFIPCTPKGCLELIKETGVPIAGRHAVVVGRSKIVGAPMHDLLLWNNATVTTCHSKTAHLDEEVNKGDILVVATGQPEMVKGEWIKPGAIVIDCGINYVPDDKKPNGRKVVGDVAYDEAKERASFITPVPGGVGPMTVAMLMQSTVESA

[2] = molecular target: T2, MTHFD2 recombinant human enzyme (Homo sapiens, UniProt P13995); test: MTHFD2 inhibition assay (NAD(P)H-Glo luminescence); conditions: for MTHFD1/MTHFD2 IC50 ratio: selectivity of MTHFD2 inhibition over MTHFD1, band
T2 sequence (P13995 36-350): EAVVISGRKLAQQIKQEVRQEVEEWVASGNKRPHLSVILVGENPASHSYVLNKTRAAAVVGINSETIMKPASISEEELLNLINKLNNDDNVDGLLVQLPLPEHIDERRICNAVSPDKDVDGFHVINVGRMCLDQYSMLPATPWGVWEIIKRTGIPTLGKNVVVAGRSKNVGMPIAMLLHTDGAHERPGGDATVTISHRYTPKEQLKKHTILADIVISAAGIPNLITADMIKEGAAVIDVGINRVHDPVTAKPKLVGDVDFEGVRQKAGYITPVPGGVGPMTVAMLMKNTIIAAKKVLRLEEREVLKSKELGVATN

Structure (SMILES)	IC50 [1] [nM]	IC50 [2] [nM]	MTHFD1/MTHFD2 IC50 ratio [2]
COC[C@H]1CN(c2ccc3c4c(c(=O)oc3c2C)CN(C(=O)c2ccc(C(=O)NS(=O)(=O)N(C)C(C)C)c(O[C@@H]3C[C@@H]5C[C@@H]5C3)c2F)CC4)CCN1C [Example 64, 2-(((1R,3r,5S)-bicyclo[3.1.0]hexan-3-yl)oxy)-3-fluoro-N-(N-isopropyl-N-methylsulfamoyl)-4-(8-((R)-3-(methoxymethyl)-4-methylpiperazin-1-yl)-7-methyl-5-oxo-1,3,4,5-tetrahydro-2H-chromeno[3,4-c]pyridine-3-carbonyl)benzamide]	1 to 10	1 to 10	F (<3)
COC[C@H]1CN(c2cc(C)c3c4c(c(=O)oc3c2C)CN(C(=O)c2cc(N3CCCC3)c(C(=O)NS(=O)(=O)C3(C)CC3)cc2F)CC4)CCN1C [Example 142, (R)-5-fluoro-4-(8-(3-(methoxymethyl)-4-methylpiperazin-1-yl)-7,10-dimethyl-5-oxo-1,3,4,5-tetrahydro-2H-chromeno[3,4-c]pyridine-3-carbonyl)-N-((1-methylcyclopropyl)sulfonyl)-2-(pyrrolidin-1-yl)benzamide]	10 to 100	10 to 100	G (^ 3 to 9.0)
COC[C@H]1CN(c2cc(C)c3c4c(c(=O)oc3c2C)CN(C(=O)c2ccc(C(=O)NS(=O)(=O)N3CCCC3)c(N(C)C3CCC3)c2)CC4)CCN1C [Example 200, (R)-2-(cyclobutyl(methyl)amino)-4-(8-(3-(methoxymethyl)-4-methylpiperazin-1-yl)-7,10-dimethyl-5-oxo-1,3,4,5-tetrahydro-2H-chromeno[3,4-c]pyridine-3-carbonyl)-N-(pyrrolidin-1-ylsulfonyl)benzamide]	100 to 1000	10 to 100	H (>9.0 to 30)
COC[C@H]1CN(c2ccc3c4c(c(=O)oc3c2C)CN(C(=O)c2ccc(C(=O)NS(=O)(=O)N(C)C)c(N3C5CCC3CC5)c2)CC4)CCN1C [Example 16, (R)-2-(7-azabicyclo[2.2.1]heptan-7-yl)-N-(N,N-dimethylsulfamoyl)-4-(8-(3-(methoxymethyl)-4-methylpiperazin-1-yl)-7-methyl-5-oxo-1,3,4,5-tetrahydro-2H-chromeno[3,4-c]pyridine-3-carbonyl)benzamide]	1 to 10	1 to 10	F (<3)
COC[C@H]1CN(c2ccc3c4c(c(=O)oc3c2Cl)CN(C(=O)c2ccc(C(=O)NS(=O)(=O)N(C)C)c(OC3CCC3)c2F)CC4)CCN1C [Example 52, (R)-4-(7-chloro-8-(3-(methoxymethyl)-4-methylpiperazin-1-yl)-5-oxo-1,3,4,5-tetrahydro-2H-chromeno[3,4-c]pyridine-3-carbonyl)-2-cyclobutoxy-N-(N,N-dimethylsulfamoyl)-3-fluorobenzamide]	1 to 10	1 to 10	–
COC[C@H]1CN(c2cc(F)c3c4c(c(=O)oc3c2C)CN(C(=O)c2cc(OC)c(C(=O)NS(=O)(=O)N3CCCC3)cc2F)CC4)CCN1C [Example 309, (R)-5-fluoro-4-(10-fluoro-8-(3-(methoxymethyl)-4-methylpiperazin-1-yl)-7-methyl-5-oxo-1,3,4,5-tetrahydro-2H-chromeno[3,4-c]pyridine-3-carbonyl)-2-methoxy-N-(pyrrolidin-1-ylsulfonyl)benzamide]	1000 to 5000	10 to 100	J (>30)
CCOc1c(C(=O)NS(=O)(=O)N2CC3CCC2C3)ccc(C(=O)N2CCc3c(c(=O)oc4c(C)c(N5CCN(C)[C@@H](COC)C5)ccc34)C2)c1F (stereo partly shown) [Example 230]	100 to 1000	10 to 100	F (<3)
COC[C@H]1CN(c2cc(C)c3c4c(c(=O)oc3c2C)CN(C(=O)c2cc(Cl)c(C(=O)NS(=O)(=O)N(C)C)c(N3CC5CC5C3)c2)CC4)CCN1C (stereo partly drawn) [Example 34, 2-(3-azabicyclo[3.1.0]hexan-3-yl)-6-chloro-N-(N,N-dimethylsulfamoyl)-4-(8-((R)-3-(methoxymethyl)-4-methylpiperazin-1-yl)-7,10-dimethyl-5-oxo-1,3,4,5-tetrahydro-2H-chromeno[3,4-c]pyridine-3-carbonyl)benzamide]	100 to 1000	1 to 10	J (>30)
COC[C@@H]1CN(c2cc(C)c3c4c(c(=O)oc3c2C)CN(C(=O)c2ccc(C(=O)NS(=O)(=O)N3CCCC3)c(OC3CCC3)c2)CC4)CCN1C [Example 131, (S)-2-cyclobutoxy-4-(8-(3-(methoxymethyl)-4-methylpiperazin-1-yl)-7,10-dimethyl-5-oxo-1,3,4,5-tetrahydro-2H-chromeno[3,4-c]pyridine-3-carbonyl)-N-(pyrrolidin-1-ylsulfonyl)benzamide]	100 to 1000	10 to 100	G (^ 3 to 9.0)
COC[C@H]1CN(c2cc(C)c3c4c(c(=O)oc3c2C)CN(C(=O)c2ccc(C(=O)NS(=O)(=O)N3CCCC3)c(N3CC5CC5C3)c2)CC4)CCN1C (stereo partly drawn) [Example 126, 2-(3-azabicyclo[3.1.0]hexan-3-yl)-4-(8-((R)-3-(methoxymethyl)-4-methylpiperazin-1-yl)-7,10-dimethyl-5-oxo-1,3,4,5-tetrahydro-2H-chromeno[3,4-c]pyridine-3-carbonyl)-N-(pyrrolidin-1-ylsulfonyl)benzamide]	10 to 100	10 to 100	F (<3)
COC[C@H]1CN(c2cc(C)c3c4c(c(=O)oc3c2C)CN(C(=O)c2ccc(C(=O)NS(=O)(=O)N3CCCC3)cc2Cl)CC4)CCN1C [Example 184, (R)-3-chloro-4-(8-(3-(methoxymethyl)-4-methylpiperazin-1-yl)-7,10-dimethyl-5-oxo-1,3,4,5-tetrahydro-2H-chromeno[3,4-c]pyridine-3-carbonyl)-N-(pyrrolidin-1-ylsulfonyl)benzamide]	1000 to 5000	100 to 1000	J (>30)
COC[C@H]1CN(c2cc(C)c3c4c(c(=O)oc3c2C)CN(C(=O)c2ccc(C(=O)NS(=O)(=O)N(C)C)c(N3CCCC(F)(F)C3)c2F)CC4)CCN1C [Example 78, (R)-2-(3,3-difluoropiperidin-1-yl)-N-(N,N-dimethylsulfamoyl)-3-fluoro-4-(8-(3-(methoxymethyl)-4-methylpiperazin-1-yl)-7,10-dimethyl-5-oxo-1,3,4,5-tetrahydro-2H-chromeno[3,4-c]pyridine-3-carbonyl)benzamide]	1 to 10	1 to 10	–
COC[C@H]1CN(c2cc(C)c3c4c(c(=O)oc3c2C)CN(C(=O)c2ccc(C(=O)NS(=O)(=O)C3(C)CC3)c(OC3C[C@@H]5C[C@@H]5C3)c2F)CC4)CCN1C (stereo partly drawn) [Example 37, 2-(((1R,3r,5S)-bicyclo[3.1.0]hexan-3-yl)oxy)-3-fluoro-4-(8-((R)-3-(methoxymethyl)-4-methylpiperazin-1-yl)-7,10-dimethyl-5-oxo-1,3,4,5-tetrahydro-2H-chromeno[3,4-c]pyridine-3-carbonyl)-N-((1-methylcyclopropyl)sulfonyl)benzamide]	1 to 10	1 to 10	F (<3)
CCOc1cc(C(=O)N2CCc3c(c(=O)oc4c(C)c(N5CCN(C)[C@@H](COC)C5)cc(C)c34)C2)c(F)cc1C(=O)NS(=O)(=O)N1CC2(CCC2)C1 [Example 220, (R)-N-((2-azaspiro[3.3]heptan-2-yl)sulfonyl)-2-ethoxy-5-fluoro-4-(8-(3-(methoxymethyl)-4-methylpiperazin-1-yl)-7,10-dimethyl-5-oxo-1,3,4,5-tetrahydro-2H-chromeno[3,4-c]pyridine-3-carbonyl)benzamide]	100 to 1000	10 to 100	H (>9.0 to 30)
COC[C@H]1CN(c2ccc3c4c(c(=O)oc3c2)CN(C(=O)c2ccc(C(=O)NS(=O)(=O)N3CCCC3)c(OC3CCC3)c2F)CC4)CCN1C [Example 182, (R)-2-cyclobutoxy-3-fluoro-4-(8-(3-(methoxymethyl)-4-methylpiperazin-1-yl)-5-oxo-1,3,4,5-tetrahydro-2H-chromeno[3,4-c]pyridine-3-carbonyl)-N-(pyrrolidin-1-ylsulfonyl)benzamide]	1000 to 5000	100 to 1000	G (^ 3 to 9.0)
CCOc1cc(C(=O)N2CCc3c(c(=O)oc4c(C)c(N5CCN(C)[C@@H](COC)C5)cc(C)c34)C2)ccc1C(=O)NS(=O)(=O)N1C2CCC1CC2 [Example 227, (R)-N-((7-azabicyclo[2.2.1]heptan-7-yl)sulfonyl)-2-ethoxy-4-(8-(3-(methoxymethyl)-4-methylpiperazin-1-yl)-7,10-dimethyl-5-oxo-1,3,4,5-tetrahydro-2H-chromeno[3,4-c]pyridine-3-carbonyl)benzamide]	100 to 1000	1 to 10	H (>9.0 to 30)
COC[C@H]1CN(c2ccc3c4c(c(=O)oc3c2C)CN(C(=O)c2ccc(C(=O)NS(=O)(=O)N(C)C(C)C)c(OC3CCC3)c2F)CC4)CCN1C [Example 56, (R)-2-cyclobutoxy-3-fluoro-N-(N-isopropyl-N-methylsulfamoyl)-4-(8-(3-(methoxymethyl)-4-methylpiperazin-1-yl)-7-methyl-5-oxo-1,3,4,5-tetrahydro-2H-chromeno[3,4-c]pyridine-3-carbonyl)benzamide]	1 to 10	1 to 10	F (<3)

Source: patent US12662489B2 (Sitryx Therapeutics Limited, priority 2023, dated 2026)
